In patent publication US20160122340A1, “HISTONE DEACETYLASE INHIBITORS BASED ON DERIVATIVES OF TRICYCLIC POLYHYDROACRIDINE AND ANALOGS POSSESSING FUSED SATURATED FIVE-AND-SEVEN-MEMBERED RINGS” (QUIMATRYX, S.L., priority 2013, published 2016):

Columns and labels:
Human HDAC9 = target: T1, Human HDAC9 (Homo sapiens, UniProt Q9UKV0); assay: In vitro HDAC9 inhibition, fluorogenic substrate; format: biochemical; settings: read-out: IC50 (μM) HDAC-9
T1 construct: Amino acids 604-1066 with C-terminal His tag, MW=50.7 kDa; His (C); purchased BioMol, Hamburg, Germany; host or cells: baculovirus expression system
Protocol: (§1) In Vitro Inhibitory Activity of Histone Deacetylase: Human Isoforms HDAC1, 2, 3, 4, 5, 6, 7, 8, 9, 10 and 11 and HeLa Cell Line Nuclear Extract (IC50 Data)
(§2) All HDAC assays were performed using acetylated AMC-labeled peptide substrate: • Substrate for isoforms HDAC1, 2, 3, 6, 10, 11 and HeLa nuclear extract assays: Acetylated fluorogenic peptide from p53 residues 379-382 (RHKKAc). • Substrate for isoforms HDAC 4, 5, 7, 9: Fluorogenic Boc-L-Lys(ε-trifluoroacetyl)-AMC. • Substrate for HDAC8 assays: Acetylated fluorogenic peptide from p53 residues 379-382 (RHKAcKAc).
(§3) 50 μM of substrate peptide (see ‘substrate peptides’ section above) and an optimal concentration of the corresponding enzyme (see ‘enzymes’ section above) in the assay buffer and 1% final concentration of DMSO were incubated in the presence of gradient concentrations of inhibitors (10-dose IC50 mode with 3-fold serial dilution) at 30° C. for 2 h. The reactions were carried out in a 96-well microplate for fluorometry in a 50 μl reaction volume. After the deacetylation reaction, Fluor-de-Lys-Developer (BioMol Cat. # KI-105) was added to each well to digest the deacetylated substrate, thus producing the fluorescent signal. The reaction was allowed to develop for 45 minutes at 30° C. with 5% CO2; then the fluorescent signal was measured with an excitation wavelength at 360 nm and an emission wavelength at 460 nm in a microplate-reading fluorometer (GeminiXS; Molecular Devices, Sunnyvale, Calif.). A curve of Deacetylated Standard (Biomol, Cat. # KI-142; made from 100 μM with 1:2 dilution and 10-doses, 6 μl) allowed the conversion of fluorescent signal into micromoles of deacetylated product. All experiments were performed in triplicate. IC50 was calculated by fitting the experimental data to a dose-response curve. DMSO was used as negative control; Trichostatin A (Biomol Cat. # GR-309) was used as positive control inhibitor.

Human HDAC10 = target: T2, Human HDAC10 (Homo sapiens, UniProt Q969S8); assay: In vitro HDAC10 inhibition, fluorogenic peptide substrate; format: biochemical; settings: read-out: IC50 (μM) HDAC-10
T2 construct: Amino acids 1-631 with Nterminal GST tag, MW=96 kDa; GST (N); purchased BioMol SE-559; host or cells: baculovirus / Sf9 cells
T2 sequence (Q969S8 1-631): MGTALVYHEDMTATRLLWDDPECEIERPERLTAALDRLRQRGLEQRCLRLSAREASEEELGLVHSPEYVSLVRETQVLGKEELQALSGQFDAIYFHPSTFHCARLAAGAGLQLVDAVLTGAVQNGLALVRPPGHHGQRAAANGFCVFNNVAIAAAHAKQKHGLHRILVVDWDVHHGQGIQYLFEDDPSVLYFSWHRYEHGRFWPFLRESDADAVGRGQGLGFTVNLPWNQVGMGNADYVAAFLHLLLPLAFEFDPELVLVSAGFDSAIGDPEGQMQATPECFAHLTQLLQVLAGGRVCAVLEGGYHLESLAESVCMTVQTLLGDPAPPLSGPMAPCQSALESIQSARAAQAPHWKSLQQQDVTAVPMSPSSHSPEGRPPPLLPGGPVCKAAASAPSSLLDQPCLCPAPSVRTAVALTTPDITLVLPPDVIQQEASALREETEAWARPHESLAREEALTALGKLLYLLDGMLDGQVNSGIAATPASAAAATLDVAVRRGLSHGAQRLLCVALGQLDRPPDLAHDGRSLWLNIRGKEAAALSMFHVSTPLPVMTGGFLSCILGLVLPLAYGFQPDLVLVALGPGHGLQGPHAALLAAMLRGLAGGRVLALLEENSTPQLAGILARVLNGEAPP
Protocol: as §1, §2, §3

T1 sequence (Q9UKV0 604-1066 isoform Q9UKV0-5): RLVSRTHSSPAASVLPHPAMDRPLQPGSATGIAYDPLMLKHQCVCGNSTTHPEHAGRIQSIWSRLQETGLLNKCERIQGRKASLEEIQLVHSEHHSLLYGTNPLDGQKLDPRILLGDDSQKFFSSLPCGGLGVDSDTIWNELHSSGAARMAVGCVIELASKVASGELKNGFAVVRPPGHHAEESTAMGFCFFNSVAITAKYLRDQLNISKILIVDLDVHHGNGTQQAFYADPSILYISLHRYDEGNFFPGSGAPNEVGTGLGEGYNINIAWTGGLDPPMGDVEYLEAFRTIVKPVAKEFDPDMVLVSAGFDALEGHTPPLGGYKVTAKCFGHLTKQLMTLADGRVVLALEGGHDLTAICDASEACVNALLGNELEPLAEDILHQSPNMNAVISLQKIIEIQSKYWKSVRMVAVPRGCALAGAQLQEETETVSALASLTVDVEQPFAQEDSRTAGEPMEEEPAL

Structure (SMILES)	IC50 (Human HDAC9) [µM]	IC50 (Human HDAC10) [µM]
O=C(CCCCCCNC(=O)c1c2c(nc3ccccc13)CCCC2)NO [Example 11, N-[7-(hydroxyamino)-7-oxoheptyl]-1,2,3,4-tetrahydroacridine-9-carboxamide]	3.17	6.89
O=C(CCCCCNC(=O)c1c2c(nc3ccccc13)CCCC2)NO [Example 10, N-[6-(hydroxyamino)-6-oxohexyl]-1,2,3,4-tetrahydroacridine-9-carboxamide]		> 5
O=C(CCCCCCNc1c2c(nc3cnccc13)CCCC2)NO [Example 8, N-hydroxy-7-[(6,7,8,9-tetrahydrobenzo[b][1,7]naphthyridin-5-yl)amino]heptanamide]	> 5	2.02
O=C(CCCCCNc1c2c(nc3ccccc13)CCCC2)NO [Example 1, N-hydroxy-6-[(1,2,3,4-tetrahydroacridin-9-yl)amino]hexanamide]	2.47	5.76
O=C(CCCCCCNc1c2c(nc3ncccc13)CCCC2)NO [Example 7, N-hydroxy-7-[(6,7,8,9-tetrahydrobenzo[b][1,8]naphthyridin-5-yl)amino]heptanamide]	> 5	4.02

Now those with a lower IC50 (Human HDAC10), led by results:

IC50 (Human HDAC9) [µM]	IC50 (Human HDAC10) [µM]	Structure (SMILES)
> 5	1.46	COc1cccc2c(NCCCCCCC(=O)NO)c3c(nc12)CCCC3 [Example 5, N-hydroxy-7-[(5-methoxy-1,2,3,4-tetrahydroacridin-9-yl)amino]heptanamide]
> 5	1.13	O=C(CCCCCCNc1c2c(nc3ccccc13)CCCCC2)NO [Example 4, N-hydroxy-7-[(7,8,9,10-tetrahydro-6H-cyclohepta[b]quinolin-11-yl)amino]heptanamide]
1.57	0.71	O=C(CCCCCCNc1c2c(nc3ccccc13)CCCC2)NO [Example 2, N-hydroxy-7-[(1,2,3,4-tetrahydroacridin-9-yl)amino]heptanamide]
> 5	0.51	O=C(CCCCCCNc1c2c(nc3ccccc13)CCC2)NO [Example 3, 7-[(2,3-dihydro-1H-cyclopenta[b]quinolin-9-yl)amino]-N-hydroxyheptanamide]
